“Also recorded” adds a separate entry of the source. Read-outs that look alike come from different tables or passages of the source. Blank lines part the entries; values can stand above or below the molecule they belong to.
How the values were obtained:
[1] = tested on: HeLa cells; experiment: Human cells cytotoxicity, HeLa; format: cell-based; details: for IC50: HeLa cell line
Experimental: (§1) Half maximal inhibitory concentration (IC50) required to inhibit 50% of the in vitro cell growth or viability were determined with broth microdilution method according to the European committee on antimicrobial susceptibility testing recommendations (protocols E.DEF 7.3.1 for Candida spp.) and according to a certified internal procedure to the laboratory IICiMed (for Leishmania spp.) (Le Pape, et al. Acta Parasitologica 2002, 47, 79-81).
(§2) The different strains, isolates and cell lines used are listed below: • Candida albicans clinical strain (IICiMed number CAAL93) • Candida albicans clinical strain (IICiMed number CAAL121) • Candida albicans reference strain SC5314 (IICiMed number CAAL146) • Leishmania major reference isolate MHOM/IL/81/BNI (IICiMed number LEMA1) • A549 cell line reference ATCC® CCL-185 (carcinoma epithelial cells from lung) • HeLa cell line reference
(§3) Growth or cell viability was performed on flat-bottomed microplate, firstly appreciated by visual reading and always confirmed using a Bio-Rad iMark microplate absorbance reader to measure the absorbance of the plate at 595 nm or using a resazurin salt cell viability assay with a Packard fluorocount microplate reader BF10000 with halogen light source to measure the fluorescence at 590 nm after excitation at 530 nm. Results represent the mean (±the standard error of the mean SEM if available) calculated from at least two independent experiments performed each in triplicate on one or several strains. The values are expressed with the corresponding pathogens and are represented in μM.

[2] = tested on: Cr. gattii; experiment: In vivo anti-Cryptococcus activity in Galleria mellonella model (Cr. gattii)
Experimental: (§4) This model also constitutes a screening model and a good alternative to the traditional studies on murine models for the evaluation of the activity of antifungal molecules. The AmB prodrug of the invention (Compound 1) was evaluated for its antifungal efficacy against Cryptococcus neoformans and Cr. gattii. […] In the absence of treatment, all larvae died after 6 days and 5 days, respectively. For Cryptococcus neoformans, at a dose of 2 mg·kg-1, amphotericin B led to 50% survival and its prodrug was also effective with a percentage survival of 30% at an equivalent dose.
In the case of Cr. gattii, amphotericin B and the prodrug led to 30% and 20% survival respectively.

[3] = tested on: Galleria mellonella; experiment: Toxicity on the Galleria mellonella model; format: in vivo; details: uninfected larvae, dose 2 mg·kg-1
Experimental: The larval model represents a rapid and practical tool for assessing the intrinsic toxicity of an active substance. See Le Pape et al, 2019, Int J Infect Dis. 2019 April; 81:85-90 for more details concerning the model. The larvae were incubated with AmB, AmB prodrug (Compound 1) and vehicle. At the dose of 2 mg·kg-1, AmB was very toxic leading to a 40% survival of the treated group. In comparison, at an equivalent dose, its prodrug was much less toxic with a percentage survival of 80%.

[4] = tested on: Cryptococcus neoformans; experiment: In vivo anti-Cryptococcus activity in Galleria mellonella model (C. neoformans); details: dose 2 mg·kg-1
Experimental: as §4

[5] = tested on: Cryptococcus gattii; experiment: Antifungal activity in vitro; format: cell-based
Experimental: as §1, §3

[6] = tested on: Cryptococcus neoformans; experiment: Antifungal activity in vitro; format: cell-based
Experimental: as §1, §3

[7] = tested on: Candida albicans (blastospores); experiment: Antifungal activity in vitro, broth microdilution (blastospores); format: cell-based; details: mean ± SEM
Experimental: as §1, with “79-81). […]” for “79-81).”
as §3, with “The values are expressed with the corresponding pathogens and are represented in μM.” left out

[8] = tested on: Leishmania major (promastigote); experiment: Antiparasitic activity in vitro (promastigote); format: cell-based; details: mean ± SEM
Experimental: as §1, with “79-81). […]” for “79-81).”
as §3, with “The values are expressed with the corresponding pathogens and are represented in μM.” left out

[9] = tested on: Leishmania major (amastigote); experiment: Antiparasitic activity in vitro (intracellular amastigote); format: cell-based; details: intracellular amastigotes
Experimental: as §1, with “79-81). […]” for “79-81).”
as §3, with “The values are expressed with the corresponding pathogens and are represented in μM.” left out

[10] = tested on: Candida albicans (filamented yeasts); experiment: Antifungal activity in vitro, broth microdilution (filamented yeasts); format: cell-based; details: mean ± SEM
Experimental: as §1, with “79-81). […]” for “79-81).”
as §3, with “The values are expressed with the corresponding pathogens and are represented in μM.” left out

[11] = Aqueous stability in the absence of enzyme; format: physicochemical; details: for aqueous stability (in words): aqueous medium/buffer, 37° C., absence of the enzyme
Experimental: Enzymatic Release and Aqueous Stability In vitro enzymatic hydrolysis was carried out with commercial β-N-acetylhexosaminidase from Canavalia ensiformis E.C. 3.2.1.52 (22.8 units·mg^−1 protein, suspension in 2.5 M ammonium sulfate, pH 7.0). Using a VWR® Cooling Thermal Shake Touch and monitoring by analytical LC. Prodrug 1 was incubated with the enzyme according to the table below: […]

[12] = Human cells cytotoxicity, HeLa; format: cell-based; details: human, HeLa cells; HeLa cell line
Experimental: as §1, §2, §3

[13] = tested on: C. albicans blastoconidia; experiment: Mouse model of C. albicans blastoconidia infection; format: in vivo, mice; details: 1 mg/kg i.p. once daily for 3 days, listed as AmB prodrug
Experimental: Mice were immunosuppressed by subcutaneous injection of 30 mg/kg prednisolone one day before challenge. On day 0, mice were infected intravenously C. albicans blastoconidia. One hour after infection, mice were treated intraperitoneally once daily with 1 mg/kg body weight of Fungizone®, Ambisome® and AmB prodrug (Compound 1, FIG. 1A) for 3 consecutive days. The control group received sterile distillated water (vehicle). Survival was monitored for 14 days post inoculation. Differences in cohorts were analyzed by the log-rank test. On day 14, all mice were euthanized and their kidneys were excised and weighed. Tissues were homogenized and serially diluted 10- to 1000-fold in sterile saline, then plated onto Sabouraud dextrose agar and incubated for 48 h to determine the number of CFUs. Tissue fungal burden was expressed as average log CFUs/gram of tissue. Differences in mean CFUs in kidneys were compared with the vehicle control using a one-way ANOVA with a post-hoc Tukey test. A P value of <0.05 was considered statistically significant.

[14] = Human cells cytotoxicity, hPBMC; format: cell-based; details: human peripheral blood mononuclear cells (hPBMC); human PBMC
[15] = Human cells cytotoxicity, A549; format: cell-based; details: human, A549 cells (ATCC CCL-185, lung carcinoma epithelial cells), pneumocyte line A549
Experimental: as §1, with “79-81). […]” for “79-81).”
as §3, with “The values are expressed with the corresponding pathogens and are represented in μM.” left out

[16] = tested on: A549; experiment: Human cells cytotoxicity, A549; format: cell-based; details: pneumocyte line A549
Experimental: as §1, with “79-81). […]” for “79-81).”
as §3, with “The values are expressed with the corresponding pathogens and are represented in μM.” left out

Compound: C[C@@H]1[C@H](O)[C@@H](C)/C=C/C=C/C=C/C=C/C=C/C=C/C=C/[C@H](O[C@@H]2O[C@H](C)[C@@H](O)[C@H](N)[C@@H]2O)C[C@@H]2O[C@](O)(C[C@@H](O)C[C@@H](O)[C@H](O)CC[C@@H](O)C[C@@H](O)CC(=O)O[C@H]1C)C[C@H](O)[C@H]2C(=O)O [Amphotericin B, amphotericin B, reference compound]
IC50 [1]: 23.29 ± 0.11 µM
IC50 ([1]; listed as AmB): ~23 µM
survival, larvae infected with Cr. gattii [2]: 30%
survival of the treated group (toxicity) [3]: 40%
percentage survival, larvae infected with Cryptococcus neoformans [4]: 50%
IC50 [5]: 40 nM
IC50 [6]: 30 nM
IC50 [7]: 360 ± 40 nM
IC50 [8]: 310 ± 20 nM
IC50 [9]: < 100 nM
IC50 [10]: 310 ± 10 nM

aqueous stability (in words) ([11]; listed as AmB prodrug): stable
aqueous stability (in words) ([11]; listed as prodrug): stable
aqueous stability (in words) ([11]; listed as prodrug 1): good aqueous stability
half-life ([11]; aqueous solution without enzyme, aqueous, pH 7.4, 37° C., read-out: t1/2 aq, pH 7.4, 37° C.): > 1440 min
IC50 ([5]; Cryptococcus gattii): 600 nM
IC50 ([6]; Cryptococcus neoformans): 250 nM
IC50 ([7]; Candida albicans): 430 ± 20 nM
IC50 ([8]; Leishmania major): 270 ± 60 nM
IC50 ([9]; Leishmania major): < 100 nM
IC50 ([10]; Candida albicans): 420 ± 10 nM
Compound: CC(=O)N[C@H]1[C@H](Oc2ccc(COC(=O)N[C@@H]3[C@H](O)[C@H](O[C@H]4/C=C/C=C/C=C/C=C/C=C/C=C/C=C/[C@H](C)[C@@H](O)[C@@H](C)[C@H](C)OC(=O)C[C@H](O)C[C@H](O)CC[C@@H](O)[C@H](O)C[C@H](O)C[C@]5(O)C[C@H](O)[C@@H](C(=O)O)[C@H](C4)O5)O[C@H](C)[C@H]3O)cc2[N+](=O)[O-])O[C@H](CO)[C@@H](O)[C@@H]1O [Compound 1]
IC50 [12]: > 100 µM
toxicity on HELA cells (in words) [1]: does not exhibit any significant toxicity
survival, larvae infected with Cr. gattii [2]: 20%
survival of the treated group (toxicity) [3]: 80%
percentage survival, larvae infected with Cryptococcus neoformans [4]: 30%
fungal burden of the kidney ([13]; day 14, vs control group): significantly reduction of the burden; also recorded: significant decrease in the kidney fungal load
survival ([13]; immunosuppressed mice, 14 days monitoring, vs vehicle, 1 mg/kg): statically improved survival; also recorded: significant improvement in survival
IC50 [14]: > 50 µM
IC50 [15]: > 50 µM
IC50 [16]: > 100 µM

From US20230218652A1, “ANTIFUNGAL PRODRUGS” (CENTRE NATIONAL DE LA RECHERCHE SCIENTIFIQUE, priority 2020, published 2023)
